One assay addresses T1, UGT 1A1 (Homo sapiens, UniProt P22309).
T1 construct: purchased BD Gentest; host or cells: insect cells (microsomes)
T1 sequence (P22309 26-533): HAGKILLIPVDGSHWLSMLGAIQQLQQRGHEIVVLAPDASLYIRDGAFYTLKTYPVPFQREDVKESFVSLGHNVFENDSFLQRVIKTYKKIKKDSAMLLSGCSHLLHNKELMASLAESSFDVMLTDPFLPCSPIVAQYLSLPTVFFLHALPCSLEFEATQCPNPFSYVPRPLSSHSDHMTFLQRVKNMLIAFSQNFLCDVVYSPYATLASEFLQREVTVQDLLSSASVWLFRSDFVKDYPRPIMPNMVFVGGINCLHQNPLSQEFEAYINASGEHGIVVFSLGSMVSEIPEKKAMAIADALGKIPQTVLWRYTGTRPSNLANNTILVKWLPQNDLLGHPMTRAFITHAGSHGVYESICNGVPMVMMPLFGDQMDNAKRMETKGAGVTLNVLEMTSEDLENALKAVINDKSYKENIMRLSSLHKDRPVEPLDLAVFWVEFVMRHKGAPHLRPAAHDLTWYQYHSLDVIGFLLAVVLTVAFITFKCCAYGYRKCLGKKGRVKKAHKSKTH
In words: Inhibition of recombinant UGT 1A1 supersomes by diclofenac, probe compound 3138. The assay is classed as biochemical. As to conditions: 0.1 mg/mL Supersomes, 20 μM compound 3138, 90 minutes at 37° C. The procedure: The invention includes a method of determining activity of the uridine 5′-diphospho-glucuronosyltransferase (UDP-glucuronosyltransferase, or UGT) family enzymes in vitro. […] Following the UGT enzyme reaction, an equal volume of P450-Glo Luciferin Detection Reagent (Promega) containing 15-30 mM D-cysteine-HCl.H2O (Sigma) was added and the plate was mixed and incubated at room temperature, typically for 20-30 minutes. P450-Glo Luciferin Detection Reagent can be prepared by dissolving a vial of Promega Luciferin Detection Reagent (Promega Part #V859B) with a vial of Promega P450-Glo Buffer (Promega Part #V865B).
(§1) During this incubation, the cysteine reacts with the cyanobenzathiozole substrate to yield a D-luciferin derivative. […] Therefore, activity of the UGT enzyme can be measured by analyzing the difference (lower or no output) in relative light units (RLU) of a sample in which glucuronidation occurs compared to a sample that was run under the same conditions with no added UDPGA cofactor.

In assay [1] the test system is UGT activity in human liver microsomes (HLM). In words: Inhibition of UGT activity in human liver microsomes by diclofenac (titration), probe compound 3138. It counts as biochemical. Conditions: 0.1 mg/mL HLM, 50 μM compound 3138, 15 minutes at 37° C.; read-out: EC50, inhibition of HLM utilization of compound 3138. The procedure:
The invention includes a method of determining activity of the uridine 5′-diphospho-glucuronosyltransferase (UDP-glucuronosyltransferase, or UGT) family enzymes in vitro. Briefly, UGT enzymes from overexpressed insect microsomes (Supersomes™, BD Gentest™) or animal tissue microsomes (Xenotech, BD Gentest™) were incubated with a cyanobenzothiazole substrate of the invention and the cofactor UDP-glucuronic acid (UDPGA) at 37° C. in buffer at physiological pH containing MgCl2 and alamethicin (typically, 50 mM TES, pH 7.5, 8 mM MgCl2, 4 mM UDPGA (Sigma) and 25 μg/mL alamethicin (Sigma)). […]
as §1
All reactions contained 50 mM TES, pH 7.5, 8 mM MgCl2, 25 μg/mL alamethicin, 0.1 mg/mL HLM, and 50 μM compound 3138, plus or minus 4 mM UDPGA. […] After 20 minutes at room temperature, RLU were read on a luminometer.

The next assay relates to UGT isozymes. Conditions: cited from earlier work.

SMILES strings stand for the structures.

As to `O=C(O)Cc1ccccc1Nc1c(Cl)cccc1Cl` [Diclofenac], the concentration for half-maximal inhibition (IC50) on UGT 1A1 stood at 232 µM. Also, the 50% effective concentration (EC50) in assay [1] was determined as 60 µM. The “Isozymes Modulated” value in the assay with UGT isozymes (isozymes currently reported in the literature to be modulated by the compound) was “Inhibits most isozymes”. Moreover, the “inhibition of UGT isozymes as reported in the literature” value with UGT isozymes (literature report) was “reported to inhibit UGT 1A1, 1A3, 1A6, 1A7, 1A8, 1A9, 1A10, 2B7, 2B15, and 2B17”.

The values are drawn from US8551721B2, “Bioluminescent detection of cyanohydroxy benzothiazole compounds” (Promega Corporation, priority 2008, dated 2013).
